Structures can show the parent of a compound that is named as a salt. Where two headings read alike, the source gives them in different places. Starred links: 1 amine or outer side, 2 acyl side, 3 side chain; linkers in the order of their positions; H or OH if unused. Non-standard residues stand in square brackets, D forms with d. Residues, ends and D or L forms follow the SMILES beside them. Argψ(COCH2)Gly = N=C(N)NCCC[C@H](N[*:1])C(=O)CCC(=O)[*:2]; X1 = N=C(N)NCCC[C@H](N[*:1])C(=O)CCCCC(=O)[*:2]; Cha = N[C@@H](CC1CCCCC1)C(=O)O; dCha = N[C@H](CC1CCCCC1)C(=O)O; Ava = NCCCCC(=O)O

Our source for the Ki and IC50 values is US6060451A, “Thrombin inhibitors based on the amino acid sequence of hirudin” (The National Research Council of Canada, priority 1995, dated 2000).

Assay [1] has as its target T1, thrombin (Homo sapiens, UniProt P00734). The experiment in a line: Antithrombin activity in vitro, Ki (Table III). The class given is biochemical. Particulars: first test where two are given; means for 3-5 observations. Here is the method:
The reactions were initiated by addition of the substrate dissolved in 0.1 M Tris-HCl buffer, pH 7.8 to a preincubated solution of enzyme (0.4 or 0.04 nM) and variable concentrations of inhibitor dissolved in the same buffer. Initial velocities were recorded and Ki values were determined graphically by weighted linear regression of Dixon plots in the case of competitive inhibition, or by the method of Baici (Baici, 1981) for hyperbolic inhibition. Fluorogenic assays were conducted using the same conditions and instrument as above operating in the fluorescence mode in the Ratio (λex=383 nm, λem=455 nm). Fluorescence intensities were calibrated with 7-amino-4-methyl coumarin solution of known concentration. The specificity of the synthetic peptides of the present invention for human α-thrombin may also be determined by comparing their relative inhibitory activities towards both human α-thrombin and bovine α-thrombin and trypsin by comparing Ki values obtained in the amidolytic assay of thrombin activity.

Assay [2] has as its target T1, thrombin. The assay can be described thus: Thrombin time in buffer containing fibrinogen (dTT). Particulars: read-out: IC50 dTT (concentration required to double thrombin time). The class given is biochemical. An excerpt:
*Concentration of compound required to double thrombin time in buffer

The target of a further assay is human α-thrombin (Homo sapiens, UniProt P00734). The assay can be described thus: Fluorogenic amidolytic assay of thrombin activity, hydrolysis of Tosyl-Gly-Pro-Arg-AMC (Table I).
The next assay deals with human plasma clotting. The experiment in a line: Human plasma clotting time. Particulars: read-out: IC50 plasma clotting time (concentration required to inhibit human plasma clotting time by 50%). The class given is biochemical. As for the experimental part:
Thus, for the determination of prothrombin time, 50 μl of reconstituted citrated normal human plasma (Sigma, St-Louis, Mo.) is mixed with 50 μl of thromboplastin solution at 37° C. in a 400 μl cuvette. […] The clotting time is recorded following recalcification with 100 μl of 25 mM CaCl2. The clotting time in the absence of inhibitor was between 19-22 sec.
The same procedure is adopted for the determination of activated partial thromboplastin time except that reconstituted plasma is activated for 3 minutes with cephalin (Sigma, St-Louis, Mo.).
**Concentration of compound required to inhibit human plasma clotting tim

As usually defined, the Ki is a measure of affinity in units of concentration, obtained from inhibition or displacement. On to `CC[C@H](C)[C@H](NC(=O)[C@@H]1CCCN1C(=O)[C@H](CCC(=O)O)NC(=O)[C@H](Cc1ccccc1)NC(=O)[C@H](CC(=O)O)NC(=O)CNC(=O)[C@H](CC(=O)O)NC(=O)[C@H](CC(N)=O)NC(=O)[C@H](Cc1c[nH]cn1)NC(=O)[C@H](CO)NC(=O)[C@H](CCC(N)=O)NC(=O)CCC(=O)[C@H](CCCNC(=N)N)NC(=O)[C@@H]1CCCN1C(=O)[C@@H](Cc1ccccc1)NC(C)=O)C(=O)N1CCC[C@H]1C(=O)N[C@@H](CCC(=O)O)C(=O)N[C@@H](CCC(=O)O)C(=O)N[C@@H](Cc1ccc(O)cc1)C(=O)N[C@@H](CC1CCCCC1)C(=O)N[C@@H](CCC(N)=O)C(=O)O` [BCH-2408] (Ac-[dF]P[Argψ(COCH2)Gly]QSHNDGDFEPIPEEY[Cha]Q-OH), for which the affinity at thrombin [1], expressed as Ki, was 0.075 nM. The IC50 on thrombin [2] is 1 nM. Compound `CC[C@H](C)[C@H](NC(=O)[C@@H]1CCCN1C(=O)[C@H](CCC(=O)O)NC(=O)[C@H](Cc1ccccc1)NC(=O)[C@H](CC(=O)O)NC(=O)CCCCNC(=O)CCCCNC(=O)CCCCC(=O)[C@H](CCCNC(=N)N)NC(=O)[C@@H]1CCCN1C(=O)[C@@H](Cc1ccccc1)NC(C)=O)C(=O)N1CCC[C@H]1C(=O)N[C@@H](CC(C)C)C(=O)O` [BCH-2739, Ac(D-Phe)-Pro-Arg-(CH2)4 (CO)--[NH(CH2)4 (CO)]2 -DFEPIPL-OH] (Ac-[dF]P[X1][Ava][Ava]DFEPIPL-OH) displayed a Ki at thrombin [1] of 4 nM. In addition, the IC50 at thrombin [2] amounted to 14.5 nM. The like results for `CC[C@H](C)[C@H](NC(=O)[C@@H]1CCCN1C(=O)[C@H](CCC(=O)O)NC(=O)[C@H](Cc1ccccc1)NC(=O)[C@H](CC(=O)O)NC(=O)CCCCNC(=O)CCCCNC(=O)CCCCC(=O)[C@H](CCCNC(=N)N)NC(=O)[C@@H]1CCCN1C(=O)[C@H](N)Cc1ccccc1)C(=O)N1CCC[C@H]1C(=O)N[C@@H](CC(C)C)C(=O)O` [BCH-2763, (D-Phe)-Pro-Arg-(CH2)4 (CO)--[NH(CH2)4 CO]2 -DFEPIPL-TFA salt] (H-[dF]P[X1][Ava][Ava]DFEPIPL-OH) were, in that order, 0.1 nM and 1.3 nM. The like results for `CC[C@H](C)[C@H](NC(=O)[C@@H]1CCCN1C(=O)[C@H](CCC(=O)O)NC(=O)[C@H](Cc1ccccc1)NC(=O)CCCCNC(=O)CCCCNC(=O)CCCCC(=O)[C@H](CCCNC(=N)N)NC(=O)[C@@H]1CCCN1C(=O)[C@H](N)Cc1ccccc1)C(=O)N1CCC[C@H]1C(=O)N[C@@H](CC(C)C)C(=O)O` [BCH-2767, (D-Phe)-Pro-Arg-(CH2)4 (CO)--[NH(CH2)4 CO]2 -FEPIPL-TFA salt] (H-[dF]P[X1][Ava][Ava]FEPIPL-OH) were, in that order, 40 nM and 165 nM. For `CC[C@H](C)[C@H](NC(=O)[C@H](CCC(=O)O)NC(=O)[C@H](CCC(=O)O)NC(=O)[C@H](Cc1ccccc1)NC(=O)[C@H](CC(=O)O)NC(=O)CNC(=O)[C@H](CC(=O)O)NC(=O)[C@H](CC(N)=O)NC(=O)[C@H](Cc1c[nH]cn1)NC(=O)[C@H](CO)NC(=O)[C@H](CCC(N)=O)NC(=O)CCCC(=O)[C@H](CCCNC(=N)N)NC(=O)[C@@H]1CCCN1C(=O)[C@@H](Cc1ccccc1)NC(C)=O)C(=O)N1CCC[C@H]1C(=O)N[C@@H](CCC(=O)O)C(=O)N[C@@H](CCC(=O)O)C(=O)N[C@@H](Cc1ccc(O)cc1)C(=O)N[C@@H](CC(C)C)C(=O)N[C@@H](CCC(N)=O)C(=O)O` [P102], the Ki at human α-thrombin came to 0.56 nM. Turning to `CC[C@H](C)[C@H](NC(=O)[C@H](CCC(=O)O)NC(=O)[C@H](CCC(=O)O)NC(=O)[C@H](Cc1ccccc1)NC(=O)[C@H](CC(=O)O)NC(=O)CNC(=O)[C@H](CC(=O)O)NC(=O)[C@H](CC(N)=O)NC(=O)[C@H](Cc1c[nH]cn1)NC(=O)[C@H](CO)NC(=O)[C@H](CCC(N)=O)NC(=O)CCCCC(=O)[C@H](CCCNC(=N)N)NC(=O)[C@@H]1CCCN1C(=O)[C@@H](Cc1ccccc1)NC(C)=O)C(=O)N1CCC[C@H]1C(=O)N[C@@H](CCC(=O)O)C(=O)N[C@@H](CCC(=O)O)C(=O)N[C@@H](Cc1ccc(O)cc1)C(=O)N[C@@H](CC(C)C)C(=O)N[C@@H](CCC(N)=O)C(=O)O` [P103], affinity on human α-thrombin was put at a Ki of 0.14 ± 0.02 nM. Regarding `CC[C@H](C)[C@H](NC(=O)[C@H](CCC(=O)O)NC(=O)[C@H](CCC(=O)O)NC(=O)[C@H](Cc1ccccc1)NC(=O)[C@H](CC(=O)O)NC(=O)CNC(=O)[C@H](CC(=O)O)NC(=O)[C@H](CC(N)=O)NC(=O)[C@H](Cc1c[nH]cn1)NC(=O)[C@H](CO)NC(=O)CNC(=O)CC(=O)[C@H](CCCNC(=N)N)NC(=O)[C@@H]1CCCN1C(=O)[C@@H](Cc1ccccc1)NC(C)=O)C(=O)N1CCC[C@H]1C(=O)N[C@@H](CCC(=O)O)C(=O)N[C@@H](CCC(=O)O)C(=O)N[C@@H](Cc1ccc(O)cc1)C(=O)N[C@@H](CC(C)C)C(=O)N[C@@H](CCC(N)=O)C(=O)O` [P109], the Ki on thrombin [1] stood at 2.25 nM.

Consider `CC[C@H](C)[C@H](NC(=O)[C@H](CCC(=O)O)NC(=O)[C@H](CCC(=O)O)NC(=O)[C@H](Cc1ccccc1)NC(=O)[C@H](CC(=O)O)NC(=O)CNC(=O)[C@H](CC(=O)O)NC(=O)[C@H](CC(N)=O)NC(=O)[C@H](Cc1c[nH]cn1)NC(=O)[C@H](CO)NC(=O)[C@H](CCC(N)=O)NC(=O)CCC(=O)[C@H](CCCNC(=N)N)NC(=O)[C@@H]1CCCN1C(=O)[C@@H](CC1CCCCC1)NC(C)=O)C(=O)N1CCC[C@H]1C(=O)N[C@@H](CCC(=O)O)C(=O)N[C@@H](CCC(=O)O)C(=O)N[C@@H](Cc1ccc(O)cc1)C(=O)N[C@@H](CC(C)C)C(=O)N[C@@H](CCC(N)=O)C(=O)O` [P311], for which the affinity on thrombin [1] corresponds to a Ki of 0.16 nM. For the same compound, the IC50 at thrombin [2] worked out at 1.35 nM. Taken in the same sequence, the figures for `CC[C@H](C)[C@H](NC(=O)[C@@H]1CCCN1C(=O)[C@H](CCC(=O)O)NC(=O)[C@H](Cc1ccccc1)NC(=O)[C@H](CC(=O)O)NC(=O)CNC(=O)[C@H](CC(=O)O)NC(=O)[C@H](CC(N)=O)NC(=O)[C@H](Cc1c[nH]cn1)NC(=O)[C@H](CO)NC(=O)[C@H](CCC(N)=O)NC(=O)CCC(=O)[C@H](CCCNC(=N)N)NC(=O)[C@@H]1CCCN1C(=O)[C@@H](CC1CCCCC1)NC(C)=O)C(=O)N1CCC[C@H]1C(=O)N[C@@H](CCC(=O)O)C(=O)N[C@@H](CCC(=O)O)C(=O)N[C@@H](Cc1ccc(O)cc1)C(=O)N[C@@H](CC1CCCCC1)C(=O)N[C@@H](CCC(N)=O)C(=O)O` [P314] (Ac-[dCha]P[Argψ(COCH2)Gly]QSHNDGDFEPIPEEY[Cha]Q-OH) were 0.02 nM and 1.3 nM.

For the compound “Ac(D-Phe)-Pro-Arg-(CH2)4 (CO)-[NH--CH2 --CH=CH--CH2 --(CO)]2 -DEFPIPY-OH ({Ac-dF-Pro-Arg-(CH2)4CO-NHCH2CH:CHCH2CO-NHCH2CH:CHCH2CO}-DEFPIPY-OH; also: Arg carbonyl bonded to (CH2)4 (non-amide backbone link)) [BCH-2414]”, affinity with thrombin [1] was put at a Ki of 1 nM. Besides, the figures for the IC50 in the assay with thrombin [2] and in the assay with human plasma clotting were 6.23 nM and 10.5 nM, respectively. The compound “Ac(D-Phe)-thioPro-Arg-(CH2)2 (CO)-QSHNDGDFEEIPEEYLQ-OH [P290]” gave a Ki at thrombin [1] of 0.9 nM. In addition, in the assay on human plasma clotting, the IC50 amounted to 11 nM.

For [D-Phe^45, Ala^47 ]hirudin^45-65 [P73], the Ki with human α-thrombin (read-out: Human Ki, human α-thrombin mediated hydrolysis of Tosyl-Gly-Pro-Arg-AMC, mean of three determinations ± SEM, ni = not inhibited) was 41 ± 15 nM.
